Converted amounts (≈) assume the structure as drawn.

For one assay, the system named is HEK293. Briefly: cells. In kind it is functional. Conditions: Homo sapiens, ATCC CRL1573, HEK293; ASSAY_TEST Inhibition of Cell Viability; detection method Resazurin; Fluorescence (ex560/em590); MEDIA DMEM with 10% FBS; plate type 384well; TC; CORNING #3712; time 18 hr. A general note: The colour change of resazurin is a common sign of viable cells or microbes.
A further assay deals with Staphylococcus aureus. The experiment in a line: microbe, parasite or virus in culture. Conditions: ATCC 43300, 18 h, ASSAY_TEST Inhibition of Bacterial Growth, detection method Absorption (OD600), MEDIA CAMHB, plate type 384well, NBS, CORNING #3640.
The test system of the next assay is Escherichia coli. The experiment in a line: microbe, parasite or virus in culture. The conditions noted are these: ATCC 25922, 18 h, ASSAY_TEST Inhibition of Bacterial Growth, detection method Absorption (OD600), MEDIA CAMHB, plate type 384well, NBS, CORNING #3640.
For the next assay, the system named is Klebsiella pneumoniae. The experiment in a line: microbe, parasite or virus in culture. The conditions noted are these: ATCC 700603, 18 h, ASSAY_TEST Inhibition of Bacterial Growth, detection method Absorption (OD600), MEDIA CAMHB, plate type 384well, NBS, CORNING #3640.
Another assay has as its system Pseudomonas aeruginosa. Briefly: microbe, parasite or virus in culture. Conditions: ATCC 27853, 18 h, ASSAY_TEST Inhibition of Bacterial Growth, detection method Absorption (OD600), MEDIA CAMHB, plate type 384well, NBS, CORNING #3640.
Another assay deals with Acinetobacter baumannii. The experiment in a line: microbe, parasite or virus in culture. The conditions noted are these: ATCC 19606, 18 h, ASSAY_TEST Inhibition of Bacterial Growth, detection method Absorption (OD600), MEDIA CAMHB, plate type 384well, NBS, CORNING #3640.
The next assay relates to Candida albicans. Briefly: microbe, parasite or virus in culture. The conditions noted are these: ATCC 90028, ASSAY_TEST Inhibition of Fungal Growth, detection method Absorption (OD530), plate type 384well, NBS, CORNING #3640.

Description for Acinetobacter baumannii: Antibacterial activity against Acinetobacter baumannii ATCC 19606 (CO-ADD:GN_034); MIC in CAMBH media using NBS plates, by OD600
Description for Candida albicans: Antifungal activity against Candida albicans ATCC 90028 (CO-ADD:FG_001); MIC in YNB media using NBS plates, by OD630
Description for Cryptococcus neoformans: Antifungal activity against Cryptococcus neoformans H99 ATCC 208821 (CO-ADD:FG_002); MIC in YNB media using NBS plates, by Resazurin OD(600-570)
Description for Escherichia coli: Antibacterial activity against Escherichia coli ATCC 25922 (CO-ADD:GN_001); MIC in CAMBH media using NBS plates, by OD(600)
Description for Klebsiella pneumoniae: Antibacterial activity against Klebsiella pneumoniae MDR ATCC 70063 (CO-ADD:GN_003); MIC in CAMBH media using NBS plates, by OD(600)
Description for Pseudomonas aeruginosa: Antibacterial activity against Pseudomonas aeruginosa ATCC 27853 (CO-ADD:GN_042); MIC in CAMBH media using NBS plates, by OD(600)
Description for Staphylococcus aureus: Antibacterial activity against Staphylococcus aureus MRSA ATCC 43300 (CO-ADD:GP_020); MIC in CAMBH media, using NBS plates, by OD(600)

One may read the CC50 as the concentration that lowers cell viability or growth by half. For the compound `Oc1ccccc1-c1cc2ccccc2[nH]1` [2-(2'-HYDROXYPHENYL)-1H-INDOLE], the midpoint of cytotoxicity in the assay on HEK293, the CC50, lay at 0.256 µg/mL (≈ 1.22 µM). In addition, the MIC against Cryptococcus neoformans, with Staphylococcus aureus, against Escherichia coli, in the assay on Klebsiella pneumoniae, in the assay on Pseudomonas aeruginosa and with Acinetobacter baumannii was more than 32 µg/mL each time. Moreover, the MIC with Candida albicans was more than 32 µg/mL.

The values are drawn from ChEMBL document CHEMBL4513144, “CO-ADD screening of University of Central Lancashire (UK) compounds”.
